# Values of other authors in patent US20150148304A1, “Novel Peptides and Analogs for Use in the Treatment of Macrophage Activation Syndrome” (Soligenix, Inc., priority 2013, published 2015).
# How the values were obtained:
# TLR9 = target: T1, TLR9 (Homo sapiens, UniProt Q9NR96); details: average; US 2011/0136845 Trawick et al.; cited from earlier work
# T1 sequence (Q9NR96 26-1032): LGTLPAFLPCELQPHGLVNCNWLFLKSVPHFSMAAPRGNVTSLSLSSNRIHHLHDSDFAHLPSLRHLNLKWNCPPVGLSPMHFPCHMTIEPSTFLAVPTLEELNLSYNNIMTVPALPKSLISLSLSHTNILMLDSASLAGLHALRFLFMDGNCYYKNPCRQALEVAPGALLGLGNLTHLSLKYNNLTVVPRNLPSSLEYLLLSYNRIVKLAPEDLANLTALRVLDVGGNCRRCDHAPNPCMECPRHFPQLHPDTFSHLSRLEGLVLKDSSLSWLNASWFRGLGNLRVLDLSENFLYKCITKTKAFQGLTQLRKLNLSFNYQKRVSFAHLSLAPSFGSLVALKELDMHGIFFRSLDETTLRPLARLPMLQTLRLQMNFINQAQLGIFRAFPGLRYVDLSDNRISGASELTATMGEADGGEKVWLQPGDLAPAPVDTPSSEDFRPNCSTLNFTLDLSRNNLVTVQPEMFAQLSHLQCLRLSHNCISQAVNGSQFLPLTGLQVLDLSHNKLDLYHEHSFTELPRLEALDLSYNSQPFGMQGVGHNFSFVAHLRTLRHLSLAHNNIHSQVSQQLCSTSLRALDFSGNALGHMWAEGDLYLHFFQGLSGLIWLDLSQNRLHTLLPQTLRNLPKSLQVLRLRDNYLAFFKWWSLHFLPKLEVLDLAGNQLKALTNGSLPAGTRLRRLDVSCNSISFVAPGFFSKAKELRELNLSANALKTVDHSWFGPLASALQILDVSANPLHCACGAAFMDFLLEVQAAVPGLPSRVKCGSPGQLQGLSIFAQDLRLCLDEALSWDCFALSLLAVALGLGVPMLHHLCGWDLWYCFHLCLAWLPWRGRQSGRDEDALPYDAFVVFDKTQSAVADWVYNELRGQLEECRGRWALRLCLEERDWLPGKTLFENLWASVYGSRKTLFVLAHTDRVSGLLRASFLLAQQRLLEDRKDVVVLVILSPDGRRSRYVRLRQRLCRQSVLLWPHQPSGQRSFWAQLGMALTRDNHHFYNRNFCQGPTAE
# [1] = cited from earlier work
# [2] = test system: macrophage activation syndrome; details: Ravelli et al. 2001, cited from earlier work
compound,measurement,setting,value
O=C1CC[C@]2(O)[C@@H]3Cc4ccc(O)c5c4[C@]2(CCN3CC2CC2)[C@@H]1O5 [(+)-Naltrexone],inhibition of TLR9,TLR9,51%
O=C1CC[C@@]2(O)[C@H]3Cc4ccc(O)c5c4[C@@]2(CCN3CC2CC2)[C@H]1O5 [Naltrexone],time of peak plasma levels after dosing,[1]; oral administration,one
same,urinary excretion of unchanged Naltrexone,[1]; share of the elimination pathway,less than 2%
cyclosporin A [CyA],efficacy in severe or corticosteroid-resistant macrophage activation syndrome,"[2]; patients, Mouy et al. 1996",effective
same,time to disappearance of fever and improvement of laboratory abnormalities,[2]; some patients,12 to 24 h
